Measured values taken from ChEMBL document CHEMBL1201862, “PubChem BioAssay data set” (2004).
Calls of active or inactive are those of the source.

How the values were obtained:
[1] = target: T1, Ubiquitin-conjugating enzyme E2 N (Homo sapiens, UniProt P61088); type: functional;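 further: Dose-response confirmation in a TR-FRET assay detecting UBC13-driven polyubiquitin chain formation, inhibition measured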
T1 sequence (P61088 whole entry): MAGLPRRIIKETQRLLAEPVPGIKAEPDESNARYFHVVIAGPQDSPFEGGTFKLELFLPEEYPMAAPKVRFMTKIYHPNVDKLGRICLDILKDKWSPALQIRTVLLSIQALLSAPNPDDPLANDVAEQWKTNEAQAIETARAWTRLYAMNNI

Nonstructural protein 1 = Nonstructural protein 1 (Influenza A virus, UniProt Q194T2); type: functional, Influenza A virus (A/California/07/2009(H1N1))
Nonstructural protein 1, sequence (Q194T2 whole entry): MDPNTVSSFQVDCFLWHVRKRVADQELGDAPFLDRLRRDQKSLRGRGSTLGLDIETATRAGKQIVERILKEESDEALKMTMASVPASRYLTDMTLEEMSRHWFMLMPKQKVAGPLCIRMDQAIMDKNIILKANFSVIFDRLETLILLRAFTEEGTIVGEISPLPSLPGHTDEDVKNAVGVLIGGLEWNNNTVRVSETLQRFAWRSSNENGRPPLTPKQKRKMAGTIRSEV

Cytochrome P450 1A2 = target: T2, Cytochrome P450 1A2 (Homo sapiens, UniProt P05177);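 further: PubChem cytochrome P450 panel assay, CYP1A2 panel member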
T2 sequence (P05177 whole entry): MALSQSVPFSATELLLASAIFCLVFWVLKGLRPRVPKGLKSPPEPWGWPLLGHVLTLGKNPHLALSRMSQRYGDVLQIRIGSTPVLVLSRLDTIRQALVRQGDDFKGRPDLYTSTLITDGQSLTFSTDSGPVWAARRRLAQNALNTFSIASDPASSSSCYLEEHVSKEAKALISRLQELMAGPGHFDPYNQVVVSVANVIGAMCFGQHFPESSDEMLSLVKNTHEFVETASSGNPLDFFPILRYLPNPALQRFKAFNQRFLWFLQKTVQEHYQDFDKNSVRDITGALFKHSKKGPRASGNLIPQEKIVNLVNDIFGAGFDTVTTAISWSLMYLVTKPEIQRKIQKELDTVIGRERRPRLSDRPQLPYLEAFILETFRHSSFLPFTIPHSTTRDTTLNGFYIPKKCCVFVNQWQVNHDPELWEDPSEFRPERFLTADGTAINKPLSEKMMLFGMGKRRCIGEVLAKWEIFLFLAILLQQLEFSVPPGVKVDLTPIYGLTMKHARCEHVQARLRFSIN

Cytochrome P450 2C9 = Cytochrome P450 2C9 (Homo sapiens, UniProt P11712)
Cytochrome P450 2C9, sequence (P11712 whole entry): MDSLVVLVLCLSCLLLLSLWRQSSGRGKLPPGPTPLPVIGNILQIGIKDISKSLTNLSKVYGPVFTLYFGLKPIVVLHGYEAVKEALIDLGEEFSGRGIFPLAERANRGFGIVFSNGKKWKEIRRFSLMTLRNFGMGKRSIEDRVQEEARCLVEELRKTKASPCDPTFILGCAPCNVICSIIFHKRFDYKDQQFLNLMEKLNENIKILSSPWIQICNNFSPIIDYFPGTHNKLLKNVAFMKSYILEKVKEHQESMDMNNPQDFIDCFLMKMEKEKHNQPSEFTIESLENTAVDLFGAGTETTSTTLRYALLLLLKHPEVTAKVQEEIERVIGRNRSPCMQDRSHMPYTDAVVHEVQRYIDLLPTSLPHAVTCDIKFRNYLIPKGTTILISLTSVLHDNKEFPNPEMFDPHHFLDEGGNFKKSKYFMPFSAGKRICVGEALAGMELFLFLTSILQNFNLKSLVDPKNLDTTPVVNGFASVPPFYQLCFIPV

Cytochrome P450 2C19 = Cytochrome P450 2C19 (Homo sapiens, UniProt P33261); assay: Cytochrome panel assay with activity outcomes. Panel member name: p450-cyp2c19 Compounds with AC50 equal or less than 10 uM are considered active; type: functional
Cytochrome P450 2C19, sequence (P33261 whole entry): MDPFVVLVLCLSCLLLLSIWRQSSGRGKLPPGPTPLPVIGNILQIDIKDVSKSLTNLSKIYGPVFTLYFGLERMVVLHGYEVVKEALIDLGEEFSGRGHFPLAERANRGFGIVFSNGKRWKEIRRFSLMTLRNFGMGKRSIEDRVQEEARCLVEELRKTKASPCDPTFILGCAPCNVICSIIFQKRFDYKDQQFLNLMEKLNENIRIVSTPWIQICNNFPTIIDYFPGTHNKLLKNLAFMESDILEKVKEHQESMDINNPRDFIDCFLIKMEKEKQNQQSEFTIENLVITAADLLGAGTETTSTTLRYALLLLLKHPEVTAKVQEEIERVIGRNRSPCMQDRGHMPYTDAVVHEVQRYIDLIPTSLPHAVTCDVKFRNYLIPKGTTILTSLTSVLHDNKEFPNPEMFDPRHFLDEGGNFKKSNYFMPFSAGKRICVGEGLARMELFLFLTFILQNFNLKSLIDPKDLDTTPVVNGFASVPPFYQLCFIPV

[2] = growth suppression of PTEN-null colon cells, dose response, cell-based, HCT116 PTEN knockout (AID 1047); type: functional;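 further: HCT116 colon tumor cells with PTEN knocked out; cells exposed to compound for 60 hours before readout; potency for loss of cell viability measured by luminescence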
[3] = growth suppression of beta-catenin-knockout colon cells, dose response, cell-based, HCT116, human colon tumor (AID 1045); type: functional;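 further: HCT116 colon tumor cells with beta catenin knocked out; cells exposed to compound for 60 hours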
[4] = target: FAD-linked sulfhydryl oxidase ALR (Homo sapiens, UniProt P55789); assay: inhibitors of human ALR sulfhydryl oxidase, dose response, biochemical, H2O2 detection, luminescence, cherry-pick (AID 493248)
FAD-linked sulfhydryl oxidase ALR, sequence (P55789 whole entry): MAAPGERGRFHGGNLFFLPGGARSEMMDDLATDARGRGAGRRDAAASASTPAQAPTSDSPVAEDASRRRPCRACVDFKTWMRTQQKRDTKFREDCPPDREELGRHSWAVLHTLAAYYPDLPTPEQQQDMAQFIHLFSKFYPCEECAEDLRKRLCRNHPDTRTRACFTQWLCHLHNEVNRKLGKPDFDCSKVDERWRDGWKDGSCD

[5] = cytotoxicity toward DRD oncogenic fibroblasts, dose response, cell-based, non-viral oncogenic, luminescence (AID 1934); type: functional; details: Homo sapiens
BJ [6] = assay: cytotoxicity toward Ras-transformed BJeLR fibroblasts, dose response, cell-based, alamar blue fluorescence, cherrypicked samples (AID 2631); type: functional; details: Homo sapiens;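 further: confirmatory dose-response assay in RAS-dependent BJ fibroblasts engineered with TERT, LT and ST, with cytotoxicity read by fluorescence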
BJ [7] = assay: cells; type: functional, cell-based; details: Homo sapiens
BJ [8] = assay: cytotoxicity toward BJ-TERT-LT-ST fibroblasts, dose response, cell-based, RAS-independent, luminescence (AID 1935); type: functional; details: Homo sapiens;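 further: BJ fibroblasts immortalized with TERT plus LT and ST oncogenes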
BJ [9] = assay: cytotoxicity toward BJ-TERT fibroblasts, dose response, cell-based, RAS-independent, luminescence (AID 1933); type: functional; details: Homo sapiens
[10] = target: T3, Carboxy-terminal domain RNA polymerase II polypeptide A small phosphatase 1 (Homo sapiens, UniProt Q9GZU7); assay: inhibitors of CTDSP1, concentration-response testing, biochemical assay, absorbance-based, actives from ultra-high-throughput screening (AID 540297); type: functional
T3 sequence (Q9GZU7 whole entry): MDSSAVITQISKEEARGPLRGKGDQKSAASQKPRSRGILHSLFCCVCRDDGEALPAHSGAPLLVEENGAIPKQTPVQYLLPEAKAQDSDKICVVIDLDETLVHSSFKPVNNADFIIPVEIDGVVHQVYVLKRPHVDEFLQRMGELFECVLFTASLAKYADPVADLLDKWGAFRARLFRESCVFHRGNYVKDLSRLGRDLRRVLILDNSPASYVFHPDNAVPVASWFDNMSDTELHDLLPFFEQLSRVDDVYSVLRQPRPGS

[11] = target: Eukaryotic translation initiation factor 4E (Mus musculus, UniProt P63073); assay: eIF4E–eIF4G protein interaction inhibitors, dose response, biochemical, TR-FRET (AID 855); type: functional;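 further: potency for disrupting eIF4E binding to eIF4GI seen as loss of FRET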
Eukaryotic translation initiation factor 4E, sequence (P63073 whole entry): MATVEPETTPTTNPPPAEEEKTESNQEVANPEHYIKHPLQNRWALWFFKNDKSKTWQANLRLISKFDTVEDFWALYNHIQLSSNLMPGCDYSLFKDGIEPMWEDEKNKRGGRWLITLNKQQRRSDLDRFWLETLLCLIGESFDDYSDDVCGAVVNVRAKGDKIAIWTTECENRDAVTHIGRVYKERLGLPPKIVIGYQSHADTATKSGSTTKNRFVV

[12] = A cytotoxicity screen of small molecule inhibitors of the PhoP region in Salmonella typhi identified in the primary screen. [Related pubchem assays: 1850, 1864, 1985 ]; type: functional
Cytochrome P450 2D6 = Cytochrome P450 2D6 (Homo sapiens, UniProt P10635);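 further: CYP2D6 member of a cytochrome P450 panel assay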
Cytochrome P450 2D6, sequence (P10635 whole entry): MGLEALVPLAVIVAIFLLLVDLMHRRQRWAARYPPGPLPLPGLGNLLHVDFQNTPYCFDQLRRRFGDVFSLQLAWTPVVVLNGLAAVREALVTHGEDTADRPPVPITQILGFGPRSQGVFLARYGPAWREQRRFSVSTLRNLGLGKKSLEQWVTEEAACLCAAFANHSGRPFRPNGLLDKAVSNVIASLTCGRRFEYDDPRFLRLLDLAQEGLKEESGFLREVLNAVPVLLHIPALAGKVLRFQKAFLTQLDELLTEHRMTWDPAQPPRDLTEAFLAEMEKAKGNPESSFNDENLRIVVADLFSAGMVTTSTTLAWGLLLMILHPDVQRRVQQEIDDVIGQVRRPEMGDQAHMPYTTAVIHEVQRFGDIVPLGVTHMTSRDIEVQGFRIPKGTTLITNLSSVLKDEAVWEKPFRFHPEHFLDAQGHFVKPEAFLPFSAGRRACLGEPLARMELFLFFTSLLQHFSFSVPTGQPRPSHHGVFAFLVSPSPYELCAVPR

Cytochrome P450 3A4 = Cytochrome P450 3A4 (Homo sapiens, UniProt P08684);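 further: CYP3A4 tested as one member of a cytochrome P450 panel screen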
Cytochrome P450 3A4, sequence (P08684 whole entry): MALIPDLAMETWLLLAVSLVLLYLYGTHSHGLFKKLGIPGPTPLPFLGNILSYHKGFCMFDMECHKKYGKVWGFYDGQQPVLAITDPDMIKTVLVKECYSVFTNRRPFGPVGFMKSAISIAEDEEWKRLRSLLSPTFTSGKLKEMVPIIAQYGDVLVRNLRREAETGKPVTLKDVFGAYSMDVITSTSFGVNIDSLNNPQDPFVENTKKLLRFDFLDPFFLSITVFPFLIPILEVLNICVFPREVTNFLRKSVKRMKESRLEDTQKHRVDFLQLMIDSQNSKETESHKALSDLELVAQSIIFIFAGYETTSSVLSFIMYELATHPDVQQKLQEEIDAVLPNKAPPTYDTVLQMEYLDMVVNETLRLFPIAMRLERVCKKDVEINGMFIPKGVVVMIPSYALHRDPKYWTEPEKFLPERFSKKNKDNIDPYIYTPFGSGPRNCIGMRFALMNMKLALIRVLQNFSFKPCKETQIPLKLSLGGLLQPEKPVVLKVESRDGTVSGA

[13] = microbe, parasite or virus in culture; type: functional; details: Mycobacterium tuberculosis
[14] = Luminescence Cell-Based Dose Retest to Confirm Inhibitors of Cancer Stem Cells. [Related pubchem assays (depositor defined):AID2717, AID2721]; type: functional; details: Homo sapiens

Cc1ncc(CO)c(/C=N/NC(=O)c2cccc(S(=O)(=O)N3CCCC3)c2)c1O
IC50 [1]: > 20 µM (inactive)
IC50 (Nonstructural protein 1): 4.73 µM (active)

COc1ccccc1N1CCN(C[C@@H]2CN3C(=O)N(C)c4ccccc4C3=N2)CC1
AC50 (Cytochrome P450 1A2): 31.6 µM (inconclusive)
AC50 (Cytochrome P450 2C9): inconclusive

Cc1ccc2c(c1)C1CN(C)CCC1N2C(=O)/C(C#N)=C/c1ccc2c(c1)OCO2 (stereo not drawn)
IC50 [1]: > 20 µM (inactive)

Cn1nc(C(F)(F)F)c(/C=N/OC(=O)c2ccc(Cl)cc2)c1Cl
AC50 (Cytochrome P450 2C19): 10 µM (inconclusive)
AC50 (Cytochrome P450 2C9): inconclusive

Clc1ccc(-c2ccc(/C=N/Nc3nncc(-c4ccccc4)n3)o2)cc1
EC50 [2]: 16.9 µM (active)
EC50 [3]: 14.5 µM (active)

COc1cccc(CNC(=O)Nc2cccs2)c1
AC50 [4]: 10.4 µM (active)

CC1CCCCC1N(C)C1CCN(C(=O)CNC(=O)/C=C/c2cccc(Cl)c2)CC1 (stereo not drawn)
EC50 [5]: 3.46 µM (active)
EC50 (BJ [6]): 1.51 µM (active)
EC50 (BJ [7]): 2.79 µM (active)
EC50 (BJ [8]): 2.63 µM (inconclusive)
EC50 (BJ [9]): 2.72 µM (active)

COc1ccc(OC)c(NC(=O)CSc2sc3c(O)cc(=O)[nH]c3c2C#N)c1
IC50 [10]: 5.22 µM (active)

CC(=O)Oc1ccc2c(c1)OC(c1ccccc1)CC21CC(C)(C)NC(=S)N1 (stereo not drawn)
IC50 [11]: > 64 µM (inactive)

CCc1nc(SCc2cccnc2)nc(O)c1C
AC50 [4]: 0.563 µM (active)

C=C(C)Cn1c(-c2ccc(OC)cc2)nc2ccccc21
EC50 [12]: > 50 µM (active)

Cc1ccc(SCc2ccc(C(=O)Nc3cc([N+](=O)[O-])ccc3C)cc2)cc1
AC50 (Cytochrome P450 2D6): 3.16 µM (inconclusive)
AC50 (Cytochrome P450 3A4): 8.91 µM (inconclusive)
AC50 (Cytochrome P450 2C9): inconclusive

O=C(Nc1cccc(Cl)c1)Nc1nc(-c2ccc(Cl)cc2)cs1
EC50 [2]: 28.1 µM (active)
EC50 [3]: 94.2 µM (active)

Fc1ccc(NC(S)=NCc2ccccc2Cl)cc1
EC50 [12]: > 50 µM (active)

Cc1ccc(-c2nn(-c3ccccc3)cc2CN(Cc2ccccc2)C(=O)CCC(=O)O)o1
AC50 [4]: 0.471 µM (active)

Cc1ccc(-c2ccc(/C=N\NC(=O)c3cc4c(ccc5ccccc54)o3)o2)cc1[N+](=O)[O-]
EC50 [2]: 5.36 µM (active)
EC50 [3]: 6.21 µM (active)

O=C(CCN1CCOCC1)c1ccccc1
EC50 [2]: 31.9 µM (active)
EC50 [3]: 24.8 µM (active)

COC(=O)C1=C(C)N(Cc2ccccc2)C(NCc2cccc(Cl)c2)=N[C@H]1c1ccccc1
CC50 [13]: 18.5 µM (active)
IC50 [1]: > 20 µM (inactive)
AC50 [14]: 6.12 µM (active)
